In the CheMixHub viscosity set:

Assay: xn = mol fraction of the nth substance listed

ClC(Cl)Cl + CN(C)C=O
viscosity [mPa·s], 101 kPa
Details	293.15 K	303.15 K	313.15 K	323.15 K
x2 = 0.0512	0.7325	0.6616	0.6031	–
x2 = 0.1011	0.7913	0.7089	0.636	0.5823
x2 = 0.1954	0.9132	0.8102	–	0.6447
x2 = 0.1955	–	–	0.7206	–
x2 = 0.2975	1.025	0.901	0.7977	0.7077
x2 = 0.392	1.095	0.9598	0.8479	0.7408
x2 = 0.5008	1.128	0.9894	0.8735	0.7803
x2 = 0.5983	1.123	0.9851	0.8753	0.7856
x2 = 0.6918	1.091	0.9617	0.8556	0.7692
x2 = 0.7851	1.051	0.9294	0.8306	0.7493
x2 = 0.8951	0.9944	–	0.7921	0.7179
x2 = 0.8952	–	0.8835	–	–

ClC(Cl)Cl + CO
viscosity [mPa·s]
Details	101 kPa	101.3 kPa
303 K, x1 = 0.096	–	0.5644
303 K, x1 = 0.1963	–	0.6289
303 K, x1 = 0.2971	–	0.6315
303 K, x1 = 0.4963	–	0.5872
303 K, x1 = 0.6952	–	0.5447
303 K, x1 = 0.9092	–	0.5211
303.15 K, x1 = 0.0499	0.59	–
303.15 K, x1 = 0.1326	0.642	–
303.15 K, x1 = 0.3228	0.653	–
303.15 K, x1 = 0.4234	0.634	–
303.15 K, x1 = 0.5123	0.621	–
303.15 K, x1 = 0.6981	0.608	–
303.15 K, x1 = 0.8262	0.61	–
303.15 K, x2 = 0.0625	0.509	0.509
303.15 K, x2 = 0.0947	0.5084	0.5084
303.15 K, x2 = 0.1406	0.5099	0.5099
303.15 K, x2 = 0.183	0.5138	0.5138
303.15 K, x2 = 0.2165	0.5168	0.5168
303.15 K, x2 = 0.3004	0.5296	0.5296
303.15 K, x2 = 0.3311	0.5343	0.5343
303.15 K, x2 = 0.3671	0.5424	0.5424
303.15 K, x2 = 0.3854	0.546	0.546
303.15 K, x2 = 0.4503	0.5601	0.5601
303.15 K, x2 = 0.5306	0.5764	0.5764
303.15 K, x2 = 0.615	0.5904	0.5904
303.15 K, x2 = 0.7056	0.5975	0.5975
303.15 K, x2 = 0.743	0.5962	0.5962
303.15 K, x2 = 0.8147	0.5864	0.5864
303.15 K, x2 = 0.8944	0.5613	0.5613
303.15 K, x2 = 0.9355	0.5417	0.5417
303.15 K, x2 = 0.961	0.5281	0.5281
311 K, x1 = 0.096	–	0.5043
311 K, x1 = 0.1963	–	0.5549
311 K, x1 = 0.2971	–	0.5593
311 K, x1 = 0.4963	–	0.5271
311 K, x1 = 0.6952	–	0.4971
311 K, x1 = 0.9092	–	0.4822
313.15 K, x1 = 0.0499	0.527	–
313.15 K, x1 = 0.1326	0.557	–
313.15 K, x1 = 0.3228	0.566	–
313.15 K, x1 = 0.4234	0.554	–
313.15 K, x1 = 0.5123	0.549	–
313.15 K, x1 = 0.6981	0.545	–
313.15 K, x1 = 0.8262	0.55	–
319 K, x1 = 0.096	–	0.4586
319 K, x1 = 0.1963	–	0.4932
319 K, x1 = 0.2971	–	0.5022
319 K, x1 = 0.4963	–	0.4779
319 K, x1 = 0.6952	–	0.4574
319 K, x1 = 0.9092	–	0.4489
323.15 K, x1 = 0.0499	0.439	–
323.15 K, x1 = 0.1326	0.448	–
323.15 K, x1 = 0.3228	0.451	–
323.15 K, x1 = 0.4234	0.468	–
323.15 K, x1 = 0.5123	0.474	–
323.15 K, x1 = 0.6981	0.482	–
323.15 K, x1 = 0.8262	0.496	–

O=CC(Cl)(Cl)Cl + CO
313.15 K, 101 kPa
Details	viscosity [mPa·s]
x1 = 0.0365	0.5111
x1 = 0.1162	0.9078
x1 = 0.2408	2.096
x1 = 0.3032	2.491
x1 = 0.4207	6.085
x1 = 0.444	6.591
x1 = 0.4731	7.389
x1 = 0.5032	7.028
x1 = 0.5958	3.182
x1 = 0.7159	1.792
x1 = 0.8416	1.198
x1 = 0.9603	0.8738

ClC(Cl)Cl + COC(=O)OC
viscosity [mPa·s], 101.33 kPa
Details	x2 = 0.0987	x2 = 0.2134	x2 = 0.3031	x2 = 0.4027	x2 = 0.5031	x2 = 0.6187	x2 = 0.7021	x2 = 0.7996	x2 = 0.9013
298.15 K	0.528	0.553	0.566	0.57	0.565	0.559	0.546	0.545	0.541
303.15 K	0.501	0.525	0.53	0.536	0.531	0.523	0.514	0.513	0.509
308.15 K	0.475	0.494	0.504	0.507	0.502	0.493	0.484	0.48	0.48

CCOCCOCC + COCCO
viscosity [mPa·s], 101.33 kPa
Details	298.15 K	308.15 K
x1 = 0.0157	1.497	1.223
x2 = 0.0142	0.608	0.529
x2 = 0.0354	0.617	0.539
x2 = 0.0658	0.631	0.549
x2 = 0.0821	0.639	0.553
x2 = 0.1085	0.647	0.561
x2 = 0.1503	0.663	0.578
x2 = 0.2016	0.685	0.592
x2 = 0.28	0.723	0.62
x2 = 0.3202	0.742	0.639
x2 = 0.3604	0.767	0.655
x2 = 0.4322	0.812	0.691
x2 = 0.4797	0.847	0.718
x2 = 0.5152	0.875	0.739
x2 = 0.5455	0.901	0.758
x2 = 0.5957	0.946	0.792
x2 = 0.6464	0.996	0.832
x2 = 0.7119	1.066	0.883
x2 = 0.7472	1.105	0.918
x2 = 0.8023	1.18	0.969
x2 = 0.8705	1.275	1.054
x2 = 0.9222	1.366	1.119
x2 = 0.9592	1.425	1.167

CCOCCOCC + COCCOCCO
viscosity [mPa·s], 101.33 kPa
Details	298.15 K	308.15 K
x1 = 0.0146	3.47	2.55
x2 = 0.0162	0.621	0.538
x2 = 0.0416	0.646	0.559
x2 = 0.0613	0.664	0.574
x2 = 0.0967	0.703	0.6
x2 = 0.1691	0.779	0.666
x2 = 0.2291	0.85	0.718
x2 = 0.2741	0.916	0.765
x2 = 0.3082	0.964	0.809
x2 = 0.344	1.014	0.849
x2 = 0.4006	1.115	0.929
x2 = 0.4593	1.232	1.017
x2 = 0.5082	1.346	1.097
x2 = 0.5635	1.492	1.203
x2 = 0.6145	1.65	1.306
x2 = 0.6552	1.793	1.423
x2 = 0.6969	1.949	1.503
x2 = 0.7526	2.186	1.654
x2 = 0.8075	2.441	1.823
x2 = 0.8567	2.699	1.995
x2 = 0.9074	2.985	2.19
x2 = 0.9515	3.253	2.386
